Experimental data from patent US20260234163A1, “NOVEL COMPOUNDS AND USES THEREOF” (ACELINK THERAPEUTICS, INC., priority 2023, published 2026).

How the values were obtained:
[1] = biological target: T1, Keap1-Nrf2 (Homo sapiens, UniProt Q14145); experiment: Keap1-Nrf2 Binding Inhibitory Activity Assay (fluorescence polarization, Keap1_FL + FITC-Nrf2 peptide); settings: Keap1-FL, 60 min room temperature
T1 construct: purchased Sino Biological 11981-H20B
Protocol: Example 2.1 Keap1-Nrf2 Binding Inhibitory Activity Assay
• PerkinElmer EnVision 2105 Multilabel Reader • PerkinElmer FITC FP dual emission Label 2100-8060 • LABCYTE Echo 650 • Corning 384-well microplate #4514 • Keap1_FL, Sino Biological, catalog 11981-H20B • FITC-Nrf2 peptide, GL Biochem, Lot No: p210427-XQ892761
• a) Reference titration • 1. Keap1-Nrf2 Assay Buffer was prepared: 10 mM Tris-HCl pH 7.4, 150 mM NaCl, 50 mM EDTA, 0.05% Tween20, 0.1 mg/ml BSA (freshly add before use). • 2. 2.04× Tracer working solution was prepared: 2.04 nM FITC-Nrf2 peptide in Assay Buffer from 1 μM DMSO stock. • 3. 2× Protein working solution was prepared: 25 nM Keap1-FL in Assay Buffer. • 4. 100× compound working solutions with DMSO were prepared. Starting from 100 μM, serial 3-fold dilutions (10 points) were made by the Echo on the 384-well LDV microplate, then 200 nL of compounds, in duplicated wells, were transferred to a Corning 4514 plate. • 5. 9.8 μL per well of the Tracer working solution was added into the Corning 4514 plate. • 6. 10 μL per well of the Protein working solution was added into the Corning 4514 plate, except for the first two columns where Dilution Buffer were added to serve as “positive control”. • 7. The plate was incubated at room temperature for 60 min. • b) Read data on an EnVision with the following setting: Excitation Light (%): 84; Measurement Height: 9.4; G-Factor: 1; Detector Gain 1:220; Detector Gain 2: 220; Flash Number: 50.
All the Test Compounds were considered as having Keap1-Nrf2 binding inhibitory activity.

[2] = test system: Nrf2; experiment: Nrf2 Cellular Assay (pGL4.37[luc2P/ARE/Hygro] luciferase reporter in HepG2 cells); type: cell-based; settings: Homo sapiens, HepG2, 6 h, ARE luciferase, 6 hours compound treatment
Protocol: Example 2.2 Nrf2 Cellular Assay
• 1. pGL4.37[luc2P/ARE/Hygro] vector was diluted to 25 ng/μL in Opti-MEM. • 2. Lipofectamine 3000 was added to a 2:1 lipid:DNA. The mixture was mixed by pipetting and incubate at room temperature for 15 minutes. • 3. HepG2 cells were cultured in complete medium (DMEM+10% FBS). • 4. Trypsin was added to the cells, which were filtered via a cell strainer to remove cell cluster, the cells were then quantified and diluted to 2×10^5 cells/ml in complete medium. • 5. The cells and plasmid were mixed, seeded to 384-well plate 50 μL per well (50 ng DNA/well) and incubated for 24 hours in a 37° C., 5% CO2 incubator.
• 1. Medium was removed from cells and replaced with 36 μL of DMEM+10% FBS per well. • 2. Incubated overnight in a 37° C., 5% CO2 incubator.
• 1. Test compound was serially diluted tin DMSO, and further diluted with DMEM (contains 10% FBS) to 10× final concentration. • 2. 4 μL of the 10× compound was added to each well, the plate was shaken for 10 sec on a plate shaker and incubated for 6 hours in a 37° C., 5% CO2 incubator.
• 1. Plates were removed from the 37° C., 5% CO2 incubator and allowed to cool to room temperature for approximately 15 minutes. • 2. 40 μL of the Glo Luciferase Assay System detection reagents were added, and the plate was shaken for 3 min and luminescence was measured.

SMILES | IC50 [1] [nM] | EC50 [2] [µM]
Cc1c2ccc3c1nnn3CCCCCN1CCC(CC1)C(=O)N1CCc3ccc(cc3C1)C2CC(=O)O (centres unmarked) [Compound 2, 2-(carboxymethyl)-1^4-methyl-4-oxo-3^1,3^2,3^3,3^4-tetrahydro-1^1H-3(7,2)-isoquinolina-1(5,1)-benzo[d][1,2,3]triazola-5(4,1)-piperidin-1-iumacyclodecaphan-5^1-ium chloride] | 1000 to 10000 | > 30
Cc1c2ccc3c1nnn3CCOCCN1CCC(CC1)C(=O)N1CCc3ccc(cc3C1)C2CC(=O)O (centres unmarked) [Compound 3, 2-(carboxymethyl)-1^4-methyl-4-oxo-3^1,3^2,3^3,3^4-tetrahydro-1^1H-8-oxa-3(7,2)-isoquinolina-1(5,1)-benzo[d][1,2,3]triazola-5(4,1)-piperidin-1-iumacyclodecaphan-5^1-ium chloride] | 1000 to 10000 | > 30
Cc1cc2cc3c1CCN(C3)C(=O)c1ccc(cc1)COCCCn1nnc3c(C)c(ccc31)C2CC(=O)O (centres unmarked) [Compound 4, 2-(1^4,3^5-dimethyl-4-oxo-3^1,3^2,3^3,3^4-tetrahydro-1^1H-7-oxa-3(7,2)-isoquinolina-1(5,1)-benzo[d][1,2,3]triazola-5(1,4)-benzenacyclodecaphane-2-yl)acetic acid] | ≤ 100 | ≤ 10
Cc1c2ccc3c1nnn3CCCOCc1ccc(cc1)C(=O)N(C)Cc1cccc(c1)C2CC(=O)O (centres unmarked) [Compound 7, 2-(1^4,5-dimethyl-6-oxo-1^1H-9-oxa-5-aza-1(5,1)-benzo[d][1,2,3]triazola-3(1,3), 7(1,4)-dibenzenacyclododecaphane-2-yl)acetic acid] | ≤ 100 | 10 to 30
Cc1c2ccc3c1nnn3CCOCCN1CCN(CC1)C(=O)c1ccc3ccc(cc3c1)C2CC(=O)O (centres unmarked) [Compound 8, 2-(1^4-methyl-4-oxo-1^1H-8-oxa-1(5,1)-benzo[d][1,2,3]triazola-5(1,4)-piperazina-3(2,7)-naphthalenacyclodecaphane-2-yl)acetic acid] | 1000 to 10000 | > 30

Next, values leading:

IC50 [1] [nM] | EC50 [2] [µM] | SMILES
100 to 1000 | > 30 | Cc1c2ccc3c1nnn3CCCCCN1CCN(CC1)C(=O)N1CCc3ccc(cc3C1)C2CC(=O)O (centres unmarked) [Compound 5, 2-(carboxymethyl)-1^4-methyl-4-oxo-3^1,3^2,3^3,3^4-tetrahydro-1^1H-3(7,2)-isoquinolina-1(5,1)-benzo[d][1,2,3]triazola-5(4,1)-piperazin-1-iumacyclodecaphan-5^1-ium chloride]
≤ 100 | ≤ 10 | Cc1c2ccc3c1nnn3CCCCOC1CCN(CC1)C(=O)N1CCc3ccc(cc3C1)C2CC(=O)O (centres unmarked) [Compound 10, 2-(1^4-methyl-4-oxo-3^1,3^2,3^3,3^4-tetrahydro-1^1H-6-oxa-3(7,2)-isoquinolina-1(5,1)-benzo[d][1,2,3]triazola-5(1,4)-piperidinacyclodecaphane-2-yl)acetic acid]
≤ 100 | ≤ 10 | Cc1c2ccc3c1nnn3C/C=C\COC1CCN(CC1)C(=O)N1CCc3ccc(cc3C1)C2CC(=O)O (centres unmarked) [Compound 11, (Z)-2-(1^4-methyl-4-oxo-3^1,3^2,3^3,3^4-tetrahydro-1^1H-6-oxa-3(7,2)-isoquinolina-1(5,1)-benzo[d][1,2,3]triazola-5(1,4)-piperidinacyclodecaphan-8-en-2-yl)acetic acid]
≤ 100 | ≤ 10 | Cc1c2ccc3c1nnn3CCCOCC1CCN(CC1)C(=O)N1CCc3ccc(cc3C1)C2CC(=O)O (centres unmarked) [Compound 12, 2-(1^4-methyl-4-oxo-3^1,3^2,3^3,3^4-tetrahydro-1^1H-7-oxa-3(7,2)-isoquinolina-1(5,1)-benzo[d][1,2,3]triazola-5(1,4)-piperidinacyclodecaphane-2-yl)acetic acid]
≤ 100 | ≤ 10 | Cc1c2ccc3c1nnn3CCCCCC1CCN(CC1)C(=O)N1CCc3ccc(cc3C1)C2CC(=O)O (centres unmarked) [Compound 14, 2-(1^4-methyl-4-oxo-3^1,3^2,3^3,3^4-tetrahydro-1^1H-3(7,2)-isoquinolina-1(5,1)-benzo[d][1,2,3]triazola-5(1,4)-piperidinacyclodecaphane-2-yl)acetic acid]
